The source of these data is patent publication US20230087950A1, “METHOD FOR SYNTHESIZING DOPA OLIGOPEPTIDE INTERMEDIATE AND USE, COMPOSITION AND PREPARATION THEREOF” (HAINAN UNIVERSITY, priority 2019, published 2023).

The structures appear in SMILES notation. “Also recorded” adds a separate entry of the source. Where a SMILES comes first, the peptide text is derived from it. [ ]: non-standard residue; d: D form. The star is where a group is joined. Dopa = N[C@@H](Cc1ccc(O)c(O)c1)C(=O)O; Stearoyl = CCCCCCCCCCCCCCCCCC(=O)*; Palmitoyl = CCCCCCCCCCCCCCCC(=O)*; Myristoyl = CCCCCCCCCCCCCC(=O)*

Data set [1] is described as follows: Gelation tests of L-DOPA-containing lipodipeptides in organic solvent/water. Type of data set: physicochemical. Particulars: for Gel formation: organic solvents (MeOH, ethanol, toluene, THF, DMSO, DMF) with water; for Gel formation / Range of gelation concentrations: result in words. On the procedure:
(§1) 1) Six samples of 40 mg FDD-16 was added into six 2 ml centrifuge tubes, followed by addition of 1 ml of respective organic solvents. Mother solutions were prepared using MeOH, ethanol, toluene, THF, DMSO, and DMF, respectively.
(§2) 2) Aliquots of 50 μl of the above mother solutions were added, respectively, to nine 2 ml centrifuge tubes, followed by addition of organic solvents (MeOH, ethanol, toluene, THF, DMSO, DMF, respectively). The volume ratios of the organic solvent to distilled water were 1:9, 2:8, 3:7, 4:6, 5:5, 6:4, 7:3, 8:2 and 9:1, respectively. Tests of each solvent ratio were repeated 3 times. Gel formation rates and the corresponding sample concentrations were marked down.
The experiments were performed like those of FDD-16.

A short description of data set [2]: Gelation tests of conjugates of fatty acid and L-DOPA in organic solvent/water. Type of data set: physicochemical. Particulars: Table 3. Here is the method:
as §1, §2
Tests were performed according to the tests done for FDD-16.

For data set [3] the following is noted: rat liver homogenate; cited from earlier work.
Data set [4] can be described thus: Appearance and stability of gels by turning the tubes upside down. Type of data set: physicochemical. Particulars: tubes turned upside down, standing for long time. The source says: The appearance and stability of gels formed from FDD-16 was studied by turning the tubes upside down and. […] This shed lights on future druggability study of FDD-16 using MeOH, ethanol, THF, DMSO and DMF as solvents. See FIG. 1 for gel formation experiments.

The conditions of data set [5]: in vivo; cited from earlier work.

Regarding `CCCCCCCCCCCCCC(=O)N[C@@H](Cc1ccc(O)c(O)c1)C(=O)N[C@@H](CC(=O)O)C(=O)O` [FDD-14] (Myristoyl-[Dopa]-Asp-OH), the Gelation concentration in data set [1] (DMF/water, Table 2) is listed as 6~20 g/mL; in data set [1] (DMSO/water, Table 2), 8~22 g/mL; in data set [1] (Ethanol/water, Table 1) it was 8~20 g/mL; in data set [1] (MeOH/water, Table 1), 8~22 g/mL; in data set [1] (THF/water, Table 2), 6~8 g/mL. Also, the Gel formation result in data set [1] is “could form stable gels; also recorded: formed gels in MeOH, ethanol, THF, DMSO and DMF; also recorded: higher possibilities to form gels; also recorded: can form stable gels”. For the same compound, in data set [1], the “Range of gelation concentrations” value was “wide range of gelation concentrations”.
As for `CCCCCCCCCCCCCCCCCC(=O)N[C@@H](Cc1ccc(O)c(O)c1)C(=O)O` [FD-18], the Gelation concentration in data set [2] (Ethanol/water) was 10~14 g/mL; in data set [2] (MeOH/water), 10~15 g/mL.
With `CCCCCCCCCCCCCCCCCC(=O)N[C@@H](Cc1ccc(O)c(O)c1)C(=O)N[C@@H](CC(=O)O)C(=O)O` [FDD-18] (Stearoyl-[Dopa]-Asp-OH), the Gelation concentration in data set [1] (DMF/water, Table 2) is 14~26 g/mL; in data set [1] (DMSO/water, Table 2), 16~30 g/mL; in data set [1] (Ethanol/water, Table 1) it was 12~26 g/mL; in data set [1] (MeOH/water, Table 1), 10~16 g/mL. Besides, the Gel formation result in data set [1] is “could form stable gels; also recorded: formed gels in MeOH, ethanol, DMSO and DMF; also recorded: higher possibilities to form gels; also recorded: can form stable gels”. In data set [1], the “Range of gelation concentrations” value was “narrower than those of FDD-16 and FDD-14”.
Take `CSCC[C@H](NC(=O)[C@@H](N)Cc1ccc(O)c(O)c1)C(=O)O` [H-DOPA-Met-OH] (H-[Dopa]-Met-OH): the half-life (in general, how long it takes for the measured level to halve) in data set [3] is recorded as 16 min.
In the case of `N[C@@H](Cc1ccc(O)c(O)c1)C(=O)N[C@@H](CC(=O)O)C(=O)O` [H-DOPA-Asp-OH] (H-[Dopa]-Asp-OH), the half-life entry in data set [3] is given as “about 174 min”.
Regarding `CCCCCCCCCCCCCCCC(=O)N[C@@H](Cc1ccc(O)c(O)c1)C(=O)N[C@@H](CC(=O)O)C(=O)O` [FDD-16] (Palmitoyl-[Dopa]-Asp-OH), the Gelation concentration in data set [1] (DMF/water, Table 2) is given as 6~22 g/mL; in data set [1] (DMSO/water, Table 2), 6~28 g/mL; in data set [1] (Ethanol/water, Table 1), 6~24 g/mL; in data set [1] (MeOH/water, Table 1) it was 6~26 g/mL; in data set [1] (THF/water, Table 2) it was 8~12 g/mL. For the same compound, the Gel formation entry in data set [1] is “could form stable gels; also recorded: formed gels in MeOH, ethanol, THF, DMSO and DMF; also recorded: can form stable gels”. In data set [1], the “Range of gelation concentrations” value is reported as “wide range of gelation concentrations”. Further, the “Appearance and stability of gel” value in data set [4] was “in good condition and remained at the bottom while standing for long time”.
On to `N[C@@H](Cc1ccc(O)c(O)c1)C(=O)O` [L-DOPA], for which, in data set [5], the bioavailability is 1-3% and the “time of effective blood drug concentration” value is listed as 50 min.
